Data set [1] in a line: Dynamic Vapor Sorption (DVS) hygroscopicity classification. To be noted: for relative humidity above which significant water uptake starts: DVS; for hygroscopicity class by DVS analysis: mass change at 85% RH compared to the starting material. It is filed as physicochemical. As to the method:
HPLC was performed on a TSP HPLC (UV3000, AS3000, P4000, SCM1000 Soft. Version 4.1); column: Waters, X Terra MS C18 4.6×100 mm, 5μ (CC01); mobile phase A: H2O+0.1% TFA; mobile phase B: acetonitrile+0.1% TFA; reference concentration: ca. 0.09 mg/mL; retention time: 6.6 minutes; gradient: 0.0 min: A:95%/B:5%; 20.0 min: A:5%/B:95%; 21.0 min: A:95%/B:5%; 30.0 min: A:95%/B:5%; flow: 1.0 mL/minute; injection volume: 10 μL; wavelength: 254 nm. Dynamic Vapor Sorption (DVS) measurements were carried out on a Sorption Measurement System SPS11-100n. The sample was placed in an aluminum crucible and the sample was allowed to equilibrate at a given RH before starting a pre-defined humidity program. (1) 2 h at 50% RH; (2) 50→0% RH (5%/h); (3) 5 h at 0% RH; (4) 0→95% RH (5%/h); (5) 5 h at 95% RH; (6) 95→50% RH (5%/h); (7) 2 h at 50% RH. Hygroscopicity was classified according to the European Pharmacopoeia (storage at 80% RH/25° C. for 24 hours). The mass change at 85% RH was used for classification, as compared to the starting material (at ambient conditions)—very hygroscopic: increase of mass ≧15%; hygroscopic: increase of mass is less than 15% and equal to or greater than 2%; slightly hygroscopic: increase of mass is less than 2% and equal to or greater than 0.2%; deliquescent: sufficient water is absorbed to form a liquid.

A short description of data set [2]: Aqueous solubility (shake 24 hours, HPLC of filtrate). To be noted: doubly distilled water, 22° C. It counts as physicochemical. As to the method:
About 40 mg of a sample (obtained by way of the procedure described in Example 2 above) was dispersed in 0.25 mL of doubly distilled water. The suspension was shaken at 22° C. for 24 hours. Afterwards, a fast solid/liquid-separation was performed using an Eppendorf Thermomixer Comfort (400 rpm). The suspensions were filtered with Millipore Centrifugal Filter Devices (PTFE filter; 0.2 μm) in a Centrifuge Hettich EBA 12 R (15,000 g, 1 minute, 22° C.). The concentration of the sample in the filtrate was analyzed by HPLC, and the solid phase was analyzed by FT-Raman spectroscopy.

A short description of data set [3]: Stability study at different moisture levels and temperatures (appearance, Karl Fischer, PXRD). It counts as physicochemical. As to the method:
To determine the relative stability of pemirolast sodium obtained in accordance with the method described in Example 10 (hemihydrate), Example 11 (heptahydrate) and Example 5 (amorphous form) at different moisture levels, a stability study was performed.
The study was performed under four different storage conditions with different moisture levels and temperatures, 40° C./75% RH, 25° C./60% RH, room temperature/10-20% RH, and room temperature/>90% RH. The substances were stored open in glass beakers and samples were withdrawn periodically for analysis (time zero, 1 week and 4 weeks).
At the time intervals mentioned, the visual appearance was inspected by (a) placing a spatula of substance on a white background, munktell filter (no smearing or crushing of the substances was performed), and (b) by microscopy equipped with plane polarized light. The water content was also analysed using Karl Fischer titration. PXRD was conducted at time zero and at 4 weeks.

Data set [4] can be described thus: In vitro dissolution study (Ph. Eur. Apparatus 2, paddle). It counts as physicochemical. The conditions noted are these: 30 mg, 50 mM phosphate buffer pH 6.8, 50 rpm, 37° C. As to the method:
An in vitro dissolution study was performed on pemirolast potassium (obtained Chemtronica AB, Stockholm, Sweden) and pemirolast sodium hemihydrate (prepared in accordance with the method described in Example 10 above) using standard Ph. Eur. Methodology (Apparatus 2 (paddle), Ph. Eur., 2.9.3, using 50 mM phosphate buffer pH 6.8 as a dissolution medium. A stirring rate of 50 rpm was employed. The temperature was 37° C.). Tests were performed in triplicate. 30 mg of each substance was added to separate vessels and the timer started. Sampling was at regular intervals using a 1 mL plastic syringe, depending on how quickly the substance appeared to dissolve (by visual inspection). The sample was filtered into HPLC vials using a small diameter filter. The samples were analysed by reversed phase HPLC. Quantification of pemirolast was performed by means of UV detection.

Data set [5] in a line: PXRD of 30 mg tablets after tabletting. It counts as physicochemical. The conditions noted are these: crushed and intact. The method, then:
For all tablets, friability and crushing resistance tests were conducted according to standard methodology (Ph. Eur. 6.0, 2.9.7 and 2.9.8, respectively, with the exception that the crushing resistance results are presented in kp rather than N according to the Ph. Eur.). PXRD was also performed on the 30 mg tablets after tabletting on both crushed and intact tablets. In view of the endotherms observed (and reported in Example 11 above) by DSC for the heptahydrate, it was expected that this may limit the ability of that polymorph to form tablets by compression (given that internal temperatures of 70° C. can easily be reached during the compression process). It was therefore decided to analyse the 30 mg tablets by PXRD as stated above.

Data set [6] in a line: Storage under ambient conditions followed by FT-Raman. It is filed as physicochemical. The conditions noted are these: about a month. The method, then:
FT-Raman spectra were recorded on a Bruker RFS 100 FT-Raman system with a near infrared Nd:YAG laser operating at 1064 nm and a liquid nitrogen-cooled germanium detector. 64 scans with a resolution of 2 cm^−1 were accumulated in the range from 3500 to 50 cm^−1. In general, 100 mW laser power was used.
The Raman spectrum was recorded directly after recrystallisation. All samples were then stored under ambient conditions on a shelf in a fume hood. […] This is shown in FIG. 4, where the lower spectrum accords to the earlier measurement and the upper spectrum accords to the later measurement.

Another data set deals with plasma tryptase. The data set can be described thus: Plasma tryptase levels in subjects with CRP above 0.9 mg/L. It is filed as in vivo.
For data set [7] the following is noted: cited from earlier work.
For data set [8] the following is noted: humans; cited from earlier work.
The mark [9] stands for this setting: listed as Example 1, Sodium Hemihydrate.
Setting [10] is: listed as Example 2, Sodium Hemihydrate.
Where [11] appears, read: listed as potassium salt of pemirolast.

SMILES strings stand for the structures.

What is called aqueous solubility is how much of the substance goes into solution per volume.

On to `Cc1cccn2c(=O)c(-c3nnn[nH]3)cnc12` [pemirolast sodium hemihydrate, Pemirolast Sodium Hemihydrate], for which, in [1] (setting [9]), the “relative humidity above which significant water uptake starts” value is “above 80 % RH”; the “hygroscopicity class by DVS analysis” value is “hygroscopic (hygroscopic: increase of mass is less than 15% and equal to or greater than 2%)”. In addition, in data set [2] (setting [10]), the aqueous solubility was 23.64 mg/mL and the “pH of the saturated solution” value came to 8.0. The solid phase stability result in data set [3] (75% RH and above) was “converted to a previously unknown solid state form”. Also, the solid phase stability entry in data set [3] (relative humidity of 60% and less (down to 10-20% RH), up to 4 weeks) was “stable”. Besides, in [3] (relative humidity of 60% and less, up to 4 weeks), the “water content (Karl Fischer) on storage, unchanged” value was determined as 2.8%. Besides, the dissolution behaviour entry in data set [4] (listed as sodium hemihydrate salt, Sodium Hemihydrate) is “formed large aggregates and appeared to be more difficult to dissolve”. The “phase transitions during tabletting (PXRD)” value in data set [5] is on record as “no phase transitions occurred”.
Consider `Cc1cccn2c(=O)c(-c3nn[n-]n3)cnc12.O.O.O.O.O.O.O.[Na+]` [pemirolast sodium heptahydrate, Pemirolast Sodium Heptahydrate], for which the solid phase stability entry in data set [3] (60% RH, up to 4 weeks) was “stable”; in data set [3] (75% RH), “converted partially to the new solid state form”; in [3] (90% RH) it was “no signs of phase transitions were observed”; in [3] (dry conditions (10-20% RH)), “converted to the hemihydrate form”. Also, in [5], the “phase transitions during tabletting (PXRD)” value was “no phase transitions occurred”.
As to `Cc1cccn2c(=O)c(-c3nnn[n-]3)cnc12.[Na+]` [amorphous form of pemirolast sodium, reference compound], in data set [6], the “physical stability (Raman spectrum changed)” value is recorded as “physically unstable”. Further, the solid phase stability result in data set [3] (60% RH and above) is recorded as “crystallized”; in data set [3] (dry conditions (10-20% RH)), “remains amorphous”.
Turning to `Cc1cccn2c(=O)c(-c3nnn[nH]3)cnc12` [pemirolast, 9-Methyl-3-(1H-tetrazol-5-yl)-4H-pyrido[1,2-a]pyrimidin-4-one], the “effect on plasma tryptase levels” value with plasma tryptase is given as “does not concomitantly reduce plasma tryptase levels”.
With `Cc1cccn2c(=O)c(-c3nnn[nH]3)cnc12` [pemirolast potassium, reference compound], in data set [1], the “relative humidity above which significant water uptake starts” value was “above 70 % RH” and the “hygroscopicity class by DVS analysis” value is listed as “very hygroscopic (very hygroscopic: increase of mass ≧15%)”. In [2] (setting [11]), the aqueous solubility is reported as 192.38 mg/mL and the “pH of the saturated solution” value worked out at 9.0. In [4] (listed as potassium salt), the dissolution behaviour entry is on record as “dissolved as soon as it was added to the dissolution medium”. In addition, in data set [7] (Pharmaceutical Interview Form), the “hygroscopicity (reported)” value is recorded as “hygroscopic”. Besides, in data set [7] (source: Pharmaceutical Interview Form), the “aqueous solubility (reported)” value is 179 to 182 mg/mL. Further, in data set [8], the plasma concentration profile result was “sharp plasma concentration peaks”.

Values taken from patent US9006431B2, “Crystalline form of pemirolast” (Cardoz AB, priority 2009, dated 2015).
